Where two headings read alike, the source gives them in different places.
What was measured:
MM1.S xenograft = experiment: MM1.S multiple myeloma xenograft model; type: in vivo; settings: Bortezomib 0.5 mg/kg IP BIW; mice dead/group
HEL 92.1.7 = experiment: Cell proliferation assay (Alamar Blue); type: cell-based, human; settings: for EC50: Homo sapiens
Description: Cells were seeded in NUNC 96-well tissue culture plates (Life Technologies) in […] culture medium and incubated at 37°C/ 5% CO2 to adhere to plastic for 18–24 h. […] One set of plates (designated for the 144 h read out) were centrifuged at low speed for 30 seconds, and respective compounds were replenished in fresh media and incubated for another 68–72 h at 37°C/ 5% CO2. […] The inhibition curve was then fitted by plotting % inhibition against log concentration in GraphPad Prism 5.0 (GraphPad Software, Inc.) and the GI50 value of compound was determined. Data are representative of at least two independent experiments.

class I HDACs = tested on: class I HDACs; design: method as in PMID 22262760; settings: read-out: potency on class I HDACs; cited from earlier work

**Q.** For `CC(C)C[C@H](NC(=O)[C@H](Cc1ccccc1)NC(=O)c1cnccn1)B(O)O` [Bortezomib, reference compound], which mortality (MM1.S xenograft) is on record?
**A.** 1/7

**Q.** What does the source list for `N[C@H]1CC[C@H](N[C@@H]2C[C@H]2c2ccccc2)CC1` [Iadademstat]?
**A.** anti-proliferative EC50, 72 h (HEL 92.1.7; HEL92.1.7, 3 days (72 h) of incubation): did not show any measurable anti-proliferative activity; cell growth inhibition reached (plateau) (HEL 92.1.7; HEL92.1.7, 6 days of incubation, up to 10 μM): 50–60%

**Q.** Which EC50 (HEL 92.1.7; HEL 92.1.7, read-out: anti-proliferative EC50, HEL92.1.7, 3 days (72 h) of incubation) does the source give for `O=C(CCCCCCNC(=O)c1cnc(N(c2ccccc2)c2ccccc2)nc1)NO` [Ricolinostat] here?
**A.** 4.4 µM

**Q.** What about the EC50 (HEL 92.1.7; HEL 92.1.7, Leukemia, 144 h, read-out: EC50, 144hr) of the same compound?
**A.** 3.7 µM

**Q.** And the IC50 (class I HDACs)?
**A.** ~0.05 µM
